Measurements from patent publication US20240124454A1, “TRICYCLIC COMPOUND AND USE THEREOF” (NANJING ZAIMING PHARMACEUTICAL CO., LTD., priority 2020, published 2024).
Like-named read-outs stand apart in the source and are kept apart here.

How the values were obtained:
HCT116 WT cells = assay: Cell proliferation inhibition test (Cell-Titer Glo), HCT116 WT; assay type: cell-based, human; conditions: 6 days, read-out: HCT116 WT Antiproliferative activity IC50
Procedure: (§1) Test Example 3. Cell Proliferation Inhibition Test of Human Colon Cancer HCT116 WT Cells and HCT116 MTAP-1-Cells
(§2) The brief introduction of the test principle: After the test MAT2A inhibitor was incubated with cancer cells for a period of time, the effect of the test compound on cell proliferation was measured using a cell proliferation count method based on the ATP content.
(§3) Reference: The experiment referred to the method disclosed in patent WO2018045071.
(§4) Material and cell: HCT116 WT cells and HCT116 MTAP^−/− cells were purchased from KYinno; fetal bovine serum, McCoy's 5a culture medium, and penicillin-streptomycin were purchased from Gibco Company (U.S.), 96-well plates were purchased from Corning Company (U.S.), and the Cell-Titer Glo reagent was purchased from Promega Company (U.S.).
(§5) Cell culture: HCT116 WT cells and HCT116 MTAP^−/− cells were cultured with a McCoy's 5a medium containing 10% fetal bovine serum+1% penicillin-streptomycin at 37° C. with 5% CO2.
(§6) Cells at logarithmic growth phase were available for the experiment.
(§7) Cell proliferation activity test: The Cell-Titer Glo reagent was used to test the compound for inhibitory activity on proliferation of both HCT116 WT and HCT116 MTAP^−/− cell strains. The cells were adjusted to a concentration of 400 cells per well, seeded on a 96-well plate, and incubated overnight at 37° C. with 5% CO2.
(§8) In the experimental group, the test compound was diluted sequentially with DMSO and a culture medium, and transferred to a cell plate at a final concentration of 10 μM, 3-fold dilution. The cells were continuously cultured at 37° C. with 5% CO2 for 6 days. The Cell-Titer Glo reagent was added and the cell activity was measured.
(§9) A negative control group and a positive control group were respectively used as Bottom and Top. The negative control group was not added with cells, only added with the culture medium in the same volume, and other operations were consistent with those of the experimental group. The positive control group was not added with the test compound, only added with DMSO in the same volume, and other operations were consistent with those of the experimental group.
(§10) The % Compound inhibition was calculated and fitted to give the IC50 of the compound.
(§11) % Compound inhibition=1-100%×(Signal−Bottom)/(Top−Bottom).
(§12) Signal referred to the signal value of the experimental group, Bottom referred to the average signal value of the negative control group, and Top referred to the average signal value of the positive control group.
(§13) HCT116 MTAP^−/− cells are cells not expressing MTAP protein obtained by site-directed knockout of wild type HCT116 (HCT116 WT) cells by gene knockout. Synthetic lethality will occur due to MAT2A inhibition and the deletion of MTAP, thereby causing tumor cell death. The activity and selectivity of the MAT2A inhibitor can be evaluated by testing the antiproliferative activity of the MAT2A inhibitor on human colon cancer HCT116 MTAP^−/− cells and human colon cancer HCT116 WT.

CYP2D6 = CYP2D6 (Homo sapiens (Human), UniProt P10635); assay: CYP2D6 inhibition in human liver microsomes (dextromethorphan substrate); assay type: in vitro ADME; conditions: human liver microsome
Sequence of CYP2D6 (P10635 whole entry): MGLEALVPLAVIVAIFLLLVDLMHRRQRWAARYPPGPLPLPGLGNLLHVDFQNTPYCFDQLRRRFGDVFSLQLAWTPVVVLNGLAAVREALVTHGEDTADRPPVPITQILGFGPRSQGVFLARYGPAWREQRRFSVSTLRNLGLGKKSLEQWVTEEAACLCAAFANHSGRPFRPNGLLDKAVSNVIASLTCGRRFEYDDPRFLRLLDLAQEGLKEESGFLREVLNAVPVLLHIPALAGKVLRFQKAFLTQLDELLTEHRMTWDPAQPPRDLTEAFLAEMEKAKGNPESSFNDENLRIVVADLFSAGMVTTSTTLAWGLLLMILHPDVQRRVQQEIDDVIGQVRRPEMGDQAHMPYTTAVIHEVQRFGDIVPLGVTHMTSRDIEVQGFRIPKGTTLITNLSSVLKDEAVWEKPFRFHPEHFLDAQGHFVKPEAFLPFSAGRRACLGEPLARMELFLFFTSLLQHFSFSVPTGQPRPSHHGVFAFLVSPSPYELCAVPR
Procedure: (§14) Test Example 7. Inhibitory Effect of Compound of the Present Application on Enzymatic Activity of CYP2C9, CYP2D6, and CYP3A4
(§15) The inhibition of CYP2C9, CYP2D6, and CYP3A4 activity by the compound of the present application was determined using the following method.
(§16) I. Experimental materials and instruments • 1. Human liver microsome (Corning 452117) • 2. NADPH (Solarbio 705Y021) • 3. Positive substrates diclofenac (Sigma SLBV3438), dextromethorphan (TRC 3-EDO-175-1), and midazolam (Cerilliant FE01161704) • 4. Positive inhibitors sulfaphenazole (D. Ehrenstorfer GmbH 109012), quinidine (TCI WEODL-RE), and ketoconazole (Sigma 100M1091V) • 5. AB Sciex Triple Quad 5500 liquid chromatography-mass spectrometry system
(§17) 1. Preparation of 100 mM phosphate-buffered saline (PBS): 7.098 g Na2HPO4 was weighed. 500 mL pure water was added. The mixture was dissolved by sonication to give solution A. 3.400 g KH2PO4 was weighed. 250 mL pure water was added. The mixture was dissolved by sonication to give solution B. The solution A was placed in a stirrer, and the solution B was slowly added until the pH reached 7.4, so that the 100 mM PBS buffer was prepared.
(§18) 2. A 10 mM NADPH solution was prepared with a 100 mM PBS buffer. A 10 mM stock solution of the compound of the present application was diluted with DMSO to give a compound working solution at a concentration of 200×(6000, 2000, 600, 200, 60, 20, and 0 μM). The positive inhibitor stock solution was diluted with DMSO to give a positive inhibitor working solution at a concentration of 200×(sulfaphenazole, 1000, 300, 100, 30, 10, 3, and 0 μM; quinidine/ketoconazole, 100, 30, 10, 3, 1, 0.3, and 0 μM). Substrate working solutions (120 μM diclofenac, 400 μM dextromethorphan, and 200 μM midazolam) at a concentration of 200× were prepared with water, acetonitrile, or acetonitrile/methanol.
(§19) 3. 2 μL of 20 mg/mL liver microsome solution, 1 μL of substrate working solution, 1 μL of compound working solution, and 176 μL of PBS buffer were taken, mixed well, and placed in a 37° C. water bath for pre-incubation for 15 min. 1 μL of sulfaphenazole, quinidine, or ketoconazole working solution was added to the positive control group instead of the compound working solution. At the same time, 10 mM NADPH solution was placed together in the 37° C. water bath for pre-incubation for 15 min. After 15 min, 20 μL of NADPH was added to each well to initiate the reaction. The mixture was incubated at 37° C. for 5 min (CYP2C9), 20 min (CYP2D6), or 5 min (CYP3A4). All incubated samples were in duplicate. After incubation for the corresponding period of time, 400 μL of icy methanol containing internal standard was added to all samples to stop the reaction. The mixture was vortexed, mixed well, and centrifuged for 40 min at 4° C. at 3220 g. 100 μL of the supernatant was transferred to a feeding plate after the centrifugation was completed, and 100 μL ultrapure water was added. The mixture was well mixed for LC-MS/MS analysis.
(§20) The reduction of metabolite production in the treatment groups versus the control group was compared by the peak area ratios of the sample to the internal standard, and the IC50 value was calculated using Excel XLfit 5.3.1.3.
(§21) Percentages of remaining activity were calculated according to the following formula:
(§22) Remaining activity%=peak area ratio of metabolite to internal standardtest sample/peak area ratio of metabolite to internal standardblank solvent×100%.

HCT116 MTAP^−/− cells = assay: Cell proliferation inhibition test (Cell-Titer Glo), HCT116 MTAP−/−; assay type: cell-based, human; conditions: 6 days, read-out: HCT116 MTAP−/− Antiproliferative activity IC50
Procedure: as §1, §2, §3, §4, §5, §6, §7, §8, §9, §10, §11, §12, §13

CYP3A4 = CYP3A4 (Homo sapiens (Human), UniProt P08684); assay: CYP3A4 inhibition in human liver microsomes (midazolam substrate); assay type: in vitro ADME; conditions: human liver microsome
Sequence of CYP3A4 (P08684 whole entry): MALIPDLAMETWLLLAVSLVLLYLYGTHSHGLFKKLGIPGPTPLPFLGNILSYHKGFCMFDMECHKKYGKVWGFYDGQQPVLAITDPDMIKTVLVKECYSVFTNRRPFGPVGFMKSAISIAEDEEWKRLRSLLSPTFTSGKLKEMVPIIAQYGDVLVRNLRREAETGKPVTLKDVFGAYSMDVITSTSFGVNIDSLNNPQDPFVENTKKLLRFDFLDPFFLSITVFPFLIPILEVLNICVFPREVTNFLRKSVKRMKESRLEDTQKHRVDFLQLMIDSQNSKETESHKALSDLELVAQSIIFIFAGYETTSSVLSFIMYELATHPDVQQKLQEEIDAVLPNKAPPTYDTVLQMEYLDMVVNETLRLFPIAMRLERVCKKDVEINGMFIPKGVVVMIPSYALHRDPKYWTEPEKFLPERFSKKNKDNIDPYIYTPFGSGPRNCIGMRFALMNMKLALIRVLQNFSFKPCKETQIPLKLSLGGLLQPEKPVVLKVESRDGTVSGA
Procedure: as §14, §15, §16, §17, §18, §19, §20, §21, §22

CYP2C9 = CYP2C9 (Homo sapiens (Human), UniProt P11712); assay: CYP2C9 inhibition in human liver microsomes (diclofenac substrate); assay type: in vitro ADME; conditions: human liver microsome
Sequence of CYP2C9 (P11712 whole entry): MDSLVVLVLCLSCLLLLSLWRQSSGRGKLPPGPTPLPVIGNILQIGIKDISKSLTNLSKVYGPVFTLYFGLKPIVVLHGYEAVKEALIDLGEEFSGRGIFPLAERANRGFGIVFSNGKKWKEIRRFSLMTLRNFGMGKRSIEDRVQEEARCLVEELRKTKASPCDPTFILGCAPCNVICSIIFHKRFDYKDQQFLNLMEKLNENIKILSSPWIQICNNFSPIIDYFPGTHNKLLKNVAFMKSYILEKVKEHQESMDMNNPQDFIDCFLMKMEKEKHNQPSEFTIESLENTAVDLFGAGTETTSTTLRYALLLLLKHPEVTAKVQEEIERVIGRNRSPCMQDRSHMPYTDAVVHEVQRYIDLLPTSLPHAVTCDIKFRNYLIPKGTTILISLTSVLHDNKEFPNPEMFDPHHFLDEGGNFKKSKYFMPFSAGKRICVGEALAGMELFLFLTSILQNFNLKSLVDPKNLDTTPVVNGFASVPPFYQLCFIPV
Procedure: as §14, §15, §16, §17, §18, §19, §20, §21, §22

Row | SMILES | IC50 (HCT116 WT cells; Homo sapiens, HCT-116, 144 h) | IC50 (CYP2D6) | IC50 (HCT116 MTAP^−/− cells; Homo sapiens, HCT-116, 144 h) | IC50 (CYP3A4) | IC50 (CYP2C9) | IC50 (HCT116 WT cells) | IC50 (HCT116 MTAP^−/− cells)
1 | Cc1ncccc1-n1c(=O)c2ncn(C)c2c2ccc(C(F)(F)F)nc21 (atropisomer, axis not shown) [Compound 20, 1-methyl-5-(2-methylpyridin-3-yl)-7-(trifluoromethyl)-1,5-dihydro-4H-imidazo[4,5-c][1,8]naphthyridin-4-one] | 0.474 µM | > 30 µM | 0.0765 µM | > 30 µM | > 30 µM | – | –
2 | Cn1cnc2c(=O)n(-c3cccc(F)c3Cl)c3nc(C(F)(F)F)ccc3c21 (atropisomer, axis not shown) [Compound 25, 5-(2-chloro-3-fluorophenyl)-1-methyl-7-(trifluoromethyl)-1,5-dihydro-4H-imidazo[4,5-c][1,8]naphthyridin-4-one] | 0.663 µM | > 30 µM | 0.155 µM | > 30 µM | > 30 µM | – | –
3 | Cn1cnc2c(=O)n(-c3cccc(F)c3Cl)c3nc(C(F)(F)F)ccc3c21 (single isomer, unassigned) [Compound 25-P2, 5-(2-chloro-3-fluorophenyl)-1-methyl-7-(trifluoromethyl)-1,5-dihydro-4H-imidazo[4,5-c][1,8]naphthyridin-4-one] | 0.384 µM | > 30 µM | 0.0705 µM | > 30 µM | > 30 µM | – | –
4 | Cn1cnc2c(=O)n(-c3cccnc3C3CC3)c3cc(Cl)ccc3c21 (single isomer, unassigned) [Compound 49-P2, 7-chloro-5-(2-cyclopropylpyridin-3-yl)-1-methyl-1,5-dihydro-4H-imidazo[4,5-c]quinolin-4-one] | 0.488 µM | > 30 µM | 0.0344 µM | > 30 µM | > 30 µM | – | –
5 | Cn1cnc2c(=O)n(-c3cccc(F)c3Cl)c3cc(Cl)ccc3c21 [Compound 39, 7-chloro-5-(2-chloro-3-fluorophenyl)-1-methyl-1,5-dihydro-4H-imidazo[4,5-c]quinolin-4-one] | – | > 30 µM | – | > 30 µM | > 30 µM | 0.626 µM | 0.106 µM
6 | Cc1ncccc1-n1c(=O)c2ncoc2c2ccc(C(F)(F)F)nc21 [Compound 40, 5-(2-methylpyridin-3-yl)-7-(trifluoromethyl)oxazolo[4,5-c][1,8]naphthyridin-4(5H)-one] | 0.414 µM | > 30 µM | 0.12 µM | > 30 µM | > 30 µM | – | –

More lines, main results first:

Row | IC50 (HCT116 WT cells; Homo sapiens, HCT-116, 144 h) | IC50 (CYP2D6) | IC50 (HCT116 MTAP^−/− cells; Homo sapiens, HCT-116, 144 h) | IC50 (CYP3A4) | IC50 (CYP2C9) | SMILES | IC50 (HCT116 WT cells) | IC50 (HCT116 MTAP^−/− cells)
7 | 3.82 µM | 18.2 µM | 0.0801 µM | > 30 µM | > 30 µM | Cn1cnc2c(=O)n(-c3cccnc3C(F)(F)F)c3nc(C(F)(F)F)ccc3c21 (single isomer, unassigned) [Compound 41-P2, 1-methyl-7-(trifluoromethyl)-5-(2-(trifluoromethyl)pyridin-3-yl)-1,5-dihydro-4H-imidazo[4,5-c][1,8]naphthyridin-4-one] | – | –
8 | 1.32 µM | > 30 µM | 0.0442 µM | > 30 µM | > 30 µM | Cn1cnc2c(=O)n(-c3cccnc3C3CC3)c3nc(C(F)(F)F)ccc3c21 (single isomer, unassigned) [Compound 42-P2, 5-(2-cyclopropylpyridin-3-yl)-1-methyl-7-(trifluoromethyl)-1,5-dihydro-4H-imidazo[4,5-c][1,8]naphthyridin-4-one] | – | –
9 | > 10 µM | > 30 µM | 0.0909 µM | > 30 µM | > 30 µM | Cn1cnc2c(=O)n(-c3cccnc3C3CC3)c3cc(C(F)(F)F)ccc3c21 (single isomer, unassigned) [Compound 48-P2, 5-(2-cyclopropylpyridin-3-yl)-1-methyl-7-(trifluoromethyl)-1,5-dihydro-4H-imidazo[4,5-c]quinolin-4-one] | – | –
10 | 1.34 µM | > 30 µM | 0.111 µM | > 30 µM | > 30 µM | O=c1c2ncoc2c2ccc(C(F)(F)F)nc2n1-c1cccnc1C1CC1 (single isomer, unassigned) [Compound 81-P2, 5-(2-cyclopropylpyridin-3-yl)-7-(trifluoromethyl)oxazolo[4,5-c][1,8]naphthyridin-4(5H)-one] | – | –
11 | 0.902 µM | > 30 µM | 0.134 µM | > 30 µM | > 30 µM | Cc1ncccc1-n1c(=O)c2ncn(C)c2c2ccc(C(F)(F)F)cc21 [Compound 45, 1-methyl-5-(2-methylpyridin-3-yl)-7-(trifluoromethyl)-1,5-dihydro-4H-imidazo[4,5-c]quinolin-4-one] | – | –
